From publication PMC12145446, “Development of an AI model for DILI-level prediction using liver organoid brightfield images” (Communications Biology, 2025)
“And” between values parts separate entries of the source, which are not always exact repeats. Equal entries are not always repeated. “Also recorded” adds a separate entry of the source.

How the values were obtained:
[1] = cited from earlier work; for Label section / Severity class: DILIrank; for Label section: FDA drug label section; for DILIrank: FDA DILIrank category based on clinical data
[2] = peak serum concentration used as dosing reference; source not given; cited from earlier work
[3] = tested on: human liver organoids (HLOs); assay: ALB secretion (Human Albumin ELISA) in the DILI toxicity test on human liver organoids; type: cell-based; conditions: 10*Cmax; for ALB inhibition, significance vs 0*Cmax: liver organoids, Supplementary Fig. 1
Method: (§1) All experiments were performed using HLOs derived from a single donor tissue. For each assay, three technical replicates were analyzed, corresponding to three independently cultured wells seeded with organoids. For passage, the following embedding method was used: HLOs were enzymatically or mechanically fragmented (with pre-cold phosphate-buffered saline (PBS)) and reseeded in new Matrigel. Specifically, the pre-cold Matrigel/cell mixture is seeded in 24-well plates at 30 μL/well to enable the formation of dome-shaped structures. Incubation in the cell incubator (37 °C, 5% CO2) for 15 min is required for Matrigel polymerization. After solidification, 500 μL of specific medium is added and later renewed at specific intervals.
(§2) The peak serum concentration (Cmax) can intuitively reflect the actual presence level of a drug in the body’s circulatory system. […] On this basis, we selected 10*Cmax as the reference concentration, taking into account the coefficient of variation in toxicology (individual variability: tenfold). […] Each drug was tested in triplicate. Plates were dosed with the drug for 72 h in each cycle (referred to as Day 0 through Day 3). […] At the end of day 3, the supernatant from each well was collected to determine ALB secretion, and the spheroids from each well were used for the cell viability assay.
The culture supernatants were collected and stored at −80 °C until use. The supernatant was assayed with a Human Albumin ELISA Kit (PROTEINTECH, KE00076). Assays were performed according to the manufacturer’s instructions.

[4] = tested on: human liver organoids (HLOs); assay: Brightfield morphology of dosed human liver organoids; type: cell-based; conditions: 10*Cmax
From the text: To explore the suitability of liver models with varying levels of complexity for DILI toxicity testing platforms, we established a single-type cell 3D model (HepG2 spheroid) and a multi-type cell 3D model (liver organoid). Specifically, HepG2 spheroids and HLOs were each exposed to 30 compounds with or without hepatotoxicity. The levels of ALB from the supernatant and cellular activity (ATP) from the spheres were further assessed at the end of Day 3 to validate the reliability of the system (Figs. 2b, d, f and 3b, d, f). […] The brightfield images across different time series and different z-axis orientations were collected daily to generate image data for morphological analysis (Supplementary Figs. 5 and 6).
as §2

[5] = tested on: human liver organoids (HLOs); assay: Cellular viability (ATP, CellTiter-Glo) in the DILI toxicity test on human liver organoids; type: cell-based; conditions: 10*Cmax; for ATP inhibition, significance vs 0*Cmax: liver organoids, Supplementary Fig. 2, peer review file
Method: as §1, §2
CellTiter-Glo (CTG, G9681, PROMEGA) reagent and culture medium were added to each well in a 1:1 ratio. The contents were mixed for 2 min to induce cell lysis. The plate was incubated at room temperature for 10 min to stabilize the luminescent signal. Recording of luminescence was carried out with BioTek Microplate Reader Synergy H1 (Vermont, USA).

In the case of CC(=O)Nc1ccc(O)cc1 [Acetaminophen], the Label section [1] is given as “Warnings and precautions”.
In the case of CCc1oc2ccccc2c1C(=O)c1cc(Br)c(O)c(Br)c1 [Benzbromarone], the Label section [1] is given as “Withdrawn”, the Severity class [1] is given as 8 and the DILIrank [1] is given as “vMost-DILI-Concern”. For the same compound, the Cmax [2] was 1840 ng/mL.
In the case of COc1ccccc1Oc1c(NS(=O)(=O)c2ccc(C(C)(C)C)cc2)nc(-c2ncccn2)nc1OCCO [Bosentan], the Label section [1] is given as “Box warning”, the Severity class [1] is given as 7 and the DILIrank [1] is given as “vMost-DILI-Concern”. For the same compound, the Cmax [2] was 2286 ng/mL.
In the case of O=C1CC2(CCCC2)CC(=O)N1CCCCN1CCN(c2ncccn2)CC1 [Buspirone], the Label section [1] is given as “Adverse reactions”, the Severity class [1] is given as 3 and the DILIrank [1] is given as “Ambiguous DILI-concern”. The Cmax [2] was 1.92 ng/mL.
In the case of CN(C)CCC(c1ccc(Cl)cc1)c1ccccn1 (stereo not shown) [Chlorpheniramine], the ALB inhibition ([3]; human liver organoids, end of Day 3 (72 h), individual replicates n = 3, unit from Fig. S1 legend, listed as Chlorphenamine) is given as 1% and 9%, the Label section [1] is given as “No match” and the Severity class [1] is given as 0. The DILIrank [1] was “vNo-DILI-Concern”, the “DILI level label by DILIrank” value ([1]; label as worded in text and figure legends) was “No-DILI” and the “Brightfield morphology changes of HLOs” value ([4]; Day 0 to Day 3) was “still increased in diameter and developed into a typical translucent hollow sphere with clear boundaries”. For the same compound, the “Brightfield morphology changes of HLOs” value ([4]; Day 0 to Day 3, listed as Chlorphenamine) was “still grew significantly”, the ATP inhibition ([5]; human liver organoids, end of Day 3 (72 h), individual replicates n = 3, listed as Chlorphenamine) was 13% and 9% and -14% and the Cmax [2] was 140 ng/mL.
In the case of Cc1nc(Nc2ncc(C(=O)Nc3c(C)cccc3Cl)s2)cc(N2CCN(CCO)CC2)n1 [Dasatinib], the Label section [1] is listed as “Adverse reactions”, the Severity class [1] is listed as 4 and the DILIrank [1] is listed as “vLess-DILI-Concern”. The Cmax [2] was 129 ng/mL.
For O=C(O)Cc1ccccc1Nc1c(Cl)cccc1Cl [Diclofenac], the Label section [1] is listed as “Warnings and precautions”, the Severity class [1] is listed as 8 and the DILIrank [1] is listed as “vMost-DILI-Concern”.
In the case of C[C@H]1O[C@@H](O[C@H]2[C@@H](O)C[C@H](O[C@H]3[C@@H](O)C[C@H](O[C@H]4CC[C@@]5(C)[C@H](CC[C@@H]6[C@@H]5C[C@@H](O)[C@]5(C)[C@@H](C7=CC(=O)OC7)CC[C@]65O)C4)O[C@@H]3C)O[C@@H]2C)C[C@H](O)[C@@H]1O [Digoxin], the “ALB inhibition, significance vs 0*Cmax” value [3] is listed as “significant”, the “ATP inhibition, significance vs 0*Cmax” value [5] is listed as “significant” and the Cmax [2] is listed as 2.21 ng/mL.
For CN(C)CCOC(c1ccccc1)c1ccccc1 [Diphenhydramine], the Label section [1] is listed as “No match” and the Severity class [1] is listed as 0.
For CCN(CC)C(=O)/C(C#N)=C/c1cc(O)c(O)c([N+](=O)[O-])c1 [Entacapone], the Label section [1] is listed as “No match”, the Severity class [1] is listed as 0 and the DILIrank [1] is listed as “vLess-DILI-Concern”. For the same compound, the Cmax [2] was 1000 ng/mL.
In the case of C#Cc1cccc(Nc2ncnc3cc(OCCOC)c(OCCOC)cc23)c1 [Erlotinib], the Label section [1] is listed as “Warnings and precautions”, the Severity class [1] is listed as 8 and the DILIrank [1] is listed as “vMost-DILI-Concern”. For the same compound, the Cmax [2] was 1200 ng/mL.
For CC(C)C(=O)Nc1ccc([N+](=O)[O-])c(C(F)(F)F)c1 [Flutamine], the Label section [1] is listed as “Box warning”, the Severity class [1] is listed as 8 and the DILIrank [1] is listed as “vMost-DILI-Concern”. The Cmax [2] was 100 ng/mL.
For COc1cc2ncnc(Nc3ccc(F)c(Cl)c3)c2cc1OCCCN1CCOCC1 [Gefitinib], the “Brightfield morphology changes of HLOs” value ([4]; Day 0 to Day 3) is given as “underwent cell death, failed to maintain their original spherical structure, and disintegrated by the end of Day 3; also recorded: started to undergo significant cell death and structural disintegration” and the Cmax [2] is given as 200 ng/mL.
For NNC(=O)c1ccncc1 [Isoniazid], the “ALB inhibition, significance vs 0*Cmax” value [3] is given as “did not show a significant difference”, the Label section [1] is given as “Box warning” and the Severity class [1] is given as 8. The DILIrank [1] was “vMost-DILI-Concern”, the “ATP inhibition, significance vs 0*Cmax” value [5] was “did not show a significant difference” and the Cmax [2] was 10500 ng/mL.
In the case of C[C@H]1COc2c(N3CCN(C)CC3)c(F)cc3c(=O)c(C(=O)O)cn1c23 [Levofloxacin], the DILIrank [1] is listed as “vMost-DILI-Concern” and the Cmax [2] is listed as 5700 ng/mL.
For CCN(CC)CC(=O)Nc1c(C)cccc1C [Lidocaine], the Label section [1] is given as “No match” and the Severity class [1] is given as 0.
For CN(Cc1cnc2nc(N)nc(N)c2n1)c1ccc(C(=O)N[C@@H](CCC(=O)O)C(=O)O)cc1 [Methotrexate], the Label section [1] is given as “Box warning”, the Severity class [1] is given as 3 and the DILIrank [1] is given as “vMost-DILI-Concern”. For the same compound, the Cmax [2] was 351 ng/mL.
In the case of CCc1nn(CCCN2CCN(c3cccc(Cl)c3)CC2)c(=O)n1CCOc1ccccc1 [Nefazodone], the Label section [1] is given as “Box warning”, the Severity class [1] is given as 8 and the DILIrank [1] is given as “vMost-DILI-Concern”. The Cmax [2] was 434.9 ng/mL.
For CS(=O)(=O)Nc1ccc([N+](=O)[O-])cc1Oc1ccccc1 [Nimesulide], the Label section [1] is listed as “Withdrawn”, the Severity class [1] is listed as 8 and the DILIrank [1] is listed as “vMost-DILI-Concern”. The Cmax [2] was 6500 ng/mL.
For CC(=O)O[C@H]1C(=O)[C@@]2(C)[C@H]([C@H](OC(=O)c3ccccc3)[C@]3(O)C[C@H](OC(=O)[C@H](O)[C@@H](NC(=O)c4ccccc4)c4ccccc4)C(C)=C1C3(C)C)[C@]1(OC(C)=O)CO[C@@H]1C[C@@H]2O [Paclitaxel], the Label section [1] is given as “Adverse reactions”, the Severity class [1] is given as 4 and the DILIrank [1] is given as “vLess-DILI-Concern”. The Cmax [2] was 600 ng/mL.
In the case of CCc1ccc(CCOc2ccc(CC3SC(=O)NC3=O)cc2)nc1 (stereo not shown) [Pioglitazone], the Label section [1] is given as “Warnings and precautions”, the Severity class [1] is given as 3 and the DILIrank [1] is given as “vLess-DILI-Concern”. The Cmax [2] was 1050 ng/mL.
In the case of Cc1cn([C@H]2C=C[C@@H](CO)O2)c(=O)[nH]c1=O [Stavudine], the Label section [1] is listed as “Box warning”, the Severity class [1] is listed as 8 and the DILIrank [1] is listed as “vMost-DILI-Concern”. For the same compound, the Cmax [2] was 776.4 ng/mL.
In the case of Cc1ccc(C(=O)c2cc(O)c(O)c([N+](=O)[O-])c2)cc1 [Tolcapone], the Label section [1] is listed as “Box warning (withdrawn)”, the Severity class [1] is listed as 8 and the DILIrank [1] is listed as “vMost-DILI-Concern”. For the same compound, the Cmax [2] was 13000 ng/mL.
For Cc1c(C)c2c(c(C)c1O)CCC(C)(COc1ccc(CC3SC(=O)NC3=O)cc1)O2 (stereo not shown) [Troglitazone], the Label section [1] is listed as “Withdrawn”, the Severity class [1] is listed as 8 and the DILIrank [1] is listed as “vMost-DILI-Concern”. For the same compound, the Cmax [2] was 2820 ng/mL.
For CC[C@]1(O)C[C@@H]2CN(CCc3c([nH]c4ccccc34)[C@@](C(=O)OC)(c3cc4c(cc3OC)N(C)[C@H]3[C@@](O)(C(=O)OC)[C@H](OC(C)=O)[C@]5(CC)C=CCN6CC[C@]43[C@@H]65)C2)C1 [Vinblastine], the “ALB inhibition, significance vs 0*Cmax” value [3] is listed as “significant”, the “ATP inhibition, significance vs 0*Cmax” value [5] is listed as “significant” and the Cmax [2] is listed as 28 ng/mL.
In the case of CC(c1cc2ccccc2s1)N(O)C(N)=O (stereo not shown) [Zileuton], the Label section [1] is given as “Warnings and precautions”, the Severity class [1] is given as 5 and the DILIrank [1] is given as “vMost-DILI-Concern”. The Cmax [2] was 3100 ng/mL.
